The text below walks through data of article PMC5553068 (Bioorganic & medicinal chemistry, 2017).

Each structure is given as a SMILES string.

Data set [1] concerns the target T1, human renin (Homo sapiens, UniProt P00797).
T1 sequence (P00797 67-406): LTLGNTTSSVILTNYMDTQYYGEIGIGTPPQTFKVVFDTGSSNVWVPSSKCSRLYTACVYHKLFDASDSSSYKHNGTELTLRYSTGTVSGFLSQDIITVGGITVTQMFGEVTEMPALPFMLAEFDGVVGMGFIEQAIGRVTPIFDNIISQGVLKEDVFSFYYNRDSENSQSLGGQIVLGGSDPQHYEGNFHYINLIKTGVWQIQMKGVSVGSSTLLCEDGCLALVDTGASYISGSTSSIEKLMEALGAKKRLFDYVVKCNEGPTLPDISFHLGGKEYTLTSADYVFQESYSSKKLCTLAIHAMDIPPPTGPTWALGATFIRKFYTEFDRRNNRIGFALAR
The note with it: for Ligand Efficiency: Table 3.

The conditions of data set [2]: Table 7, literature comparators, no reference given; cited from earlier work.
In data set [3] the test system is renin. The note with it: ligand of the 2IKO X-ray structure; cited from earlier work.
Data set [4] in a line: Rat in vivo pharmacokinetic studies. Further details: species or system Sprague Dawley rats. The note with it: for AUC: 10 mg/kg po dose, HCl salts, vehicle D5W, mean n = 3; for clearance / bioavailability: Sprague-Dawley, plasma; for clearance: iv, 1 mg/kg; for bioavailability: po, 10 mg/kg.

For the compound `CCc1nc(N)nc(N)c1-c1ccc2c(c1)N(CCCOC)CCC2` [Compound 6c, reference compound], in data set [1], the “Ligand Efficiency” value was 0.34.
Take `CCc1nc(N)nc(N)c1-c1ccc2c(c1)N(CCCOC)C(=O)C(C)(c1cc(F)cc(F)c1)O2` (centres unmarked) [Compound 7c]: in data set [2], the “%F (rat)” value is listed as 0.4%.
Consider `CCc1nc(N)nc(N)c1-c1ccc(NCc2cc(F)cc(F)c2)cc1` [Compound 8], for which the IC50 (in general, the concentration that gives 50% inhibition) in data set [3] was 4 µM.
Regarding `COCCCN1CCCc2ccc(-c3c(C)cc(N)nc3C)cc21` [Compound 12, 5-(1-(3-Methoxypropyl)-1,2,3,4-tetrahydroquinolin-7-yl)-4,6-dimethylpyridin-2-amine], the “Ligand Efficiency” value in data set [1] turned out to be 0.27.
Same read-out and setting: the same measure for `CCc1nc(N)cc(C)c1-c1ccc2c(c1)N(CCCOC)CCC2` [Compound 13, 6-Ethyl-5-(1-(3-methoxypropyl)-1,2,3,4-tetrahydroquinolin-7-yl)-4-methylpyridin-2-amine]: 0.34; for `CCc1nc(N)cc(OC)c1-c1ccc2c(c1)N(CCCOC)CCC2` [Compound 15, 6-Ethyl-4-methoxy-5-(1-(3-methoxypropyl)-1,2,3,4-tetrahydroquinolin-7-yl)pyridin-2-amine]: 0.33.
Consider `CCc1nc(N)cc(C)c1-c1cccc2c(C)c[nH]c12` [Compound 20, 6-Ethyl-4-methyl-5-(3-methyl-1H-indol-7-yl)pyridin-2-amine], for which the “fold improvement in activity” value in data set [1] (going from 17 to 19 and then to 20) is 36 fold.
Take `CCc1nc(N)cc(C)c1-c1ccc(F)c2c(C)c(CCOC)[nH]c12` [Compound 27, 6-Ethyl-5-(4-fluoro-2-(2-methoxyethyl)-3-methyl-1H-indol-7-yl)-4-methylpyridin-2-amine]: in data set [4], the AUC was found to be 473 ngh/mL; the clearance (commonly the volume of plasma or blood freed of the substance per unit of time) came out at 68 mL/min/kg; the bioavailability (commonly dose-corrected exposure relative to a reference, in per cent) is 20%.
The like results for `CCc1nc(N)cc(C)c1-c1ccc2c(c1)N(CCNC(C)=O)C(=O)C(C)(C)O2` [Compound 32, N-(2-(6-(6-Amino-2-ethyl-4-methylpyridin-3-yl)-2,2-dimethyl-3-oxo-2H-benzo[b][1,4]oxazin-4(3H)-yl)ethyl)acetamide] were, in that order, 1810 ngh/mL, 66 mL/min/kg and 58%.
The like results for `CCc1nc(N)cc(OC)c1-c1ccc2c(c1)N(CCNC(C)=O)C(=O)C(C)(C)O2` [Compound 33, N-(2-(6-(6-Amino-2-ethyl-4-methoxypyridin-3-yl)-2,2-dimethyl-3-oxo-2H-benzo[b][1,4]oxazin-4(3H)-yl)ethyl)acetamide] were, in that order, 1493 ngh/mL, 56 mL/min/kg and 39%.
Turning to `CCc1nc(N)cc(C)c1-c1ccc2c(c1)N(CCCOC)C(=O)C(C)(C)O2` [Compound 34, 6-(6-Amino-2-ethyl-4-methylpyridin-3-yl)-4-(3-methoxypropyl)-2,2-dimethyl-2H-benzo[b][1,4]oxazin-3(4H)-one], the “fold improvement in affinity vs 7b” value in data set [1] (6-ethyl-2-aminopyridine head group vs pyrimidine 7b, Table 5) is recorded as 2- to 3 fold.
